Test results published in patent US4681872A (priority 1985, dated 1987).
In brackets after ≈: the same amount, converted by molar mass. Like-named read-outs stand apart in the source and are kept apart here.

Assays:
[1] = tested on: Strep. bovis A5169; assay: antimicrobial spectrum, agar dilution MIC; type: cell-based; details: BHI agar, 35°-37° C., 20-24 hours
[2] = tested on: Staph. aureus CMX 739A; assay: antimicrobial spectrum, agar dilution MIC; type: cell-based; details: BHI agar, 35°-37° C., 20-24 hours
[3] = tested on: Staph. aureus CMX 705; assay: antimicrobial spectrum, agar dilution MIC; type: cell-based; details: 35°-37° C., 20-24 hours
[4] = tested on: Staph. aureus 642A; assay: antimicrobial spectrum, agar dilution MIC; type: cell-based; details: BHI agar, 35°-37° C., 20-24 hours
[5] = tested on: Strep. pyogenes M79061-140; assay: antimicrobial spectrum, agar dilution MIC; type: cell-based; details: 35°-37° C., 20-24 hours
[6] = tested on: Cl. perfringens 104; assay: microbe, parasite or virus in culture; type: cell-based
[7] = tested on: Cl. perfringens SFBC 2026; assay: microbe, parasite or virus in culture; type: cell-based
[8] = tested on: Cl. perfringens 788; assay: microbe, parasite or virus in culture; type: cell-based
[9] = tested on: Strep. pneumoniae; assay: acute mouse protection test; type: in vivo, Swiss albino mice; details: mice, dosed 1 and 5 hours post-infection, observed 7 days; for ED50: Streptococcus pneumoniae, 168 h
[10] = tested on: Strep. pyogenes; assay: acute mouse protection test; type: in vivo, Swiss albino mice; details: mice, dosed 1 and 5 hours post-infection, observed 7 days; for ED50: Streptococcus pyogenes, 168 h
[11] = human, in vivo; cited from earlier work
[12] = tested on: Bact. fragilis 784; assay: microbe, parasite or virus in culture; details: Bacteroides fragilis
[13] = tested on: E. coli DC-2; assay: antimicrobial spectrum, agar dilution MIC
[14] = tested on: E. coli H560; assay: antimicrobial spectrum, agar dilution MIC
[15] = tested on: Ent. aerogenes ATCC 10348; assay: antimicrobial spectrum, agar dilution MIC
[16] = tested on: Pseudomonas aeruginosa K799/61; assay: antimicrobial spectrum, agar dilution MIC
[17] = tested on: Staph. aureus A-5278; assay: antimicrobial spectrum, agar dilution MIC
[18] = tested on: Enterococcus A-5168; assay: antimicrobial spectrum, agar dilution MIC
[19] = tested on: Enterococcus GYR 1167; assay: antimicrobial spectrum, agar dilution MIC
[20] = tested on: Strep. faecalis CMX 663F; assay: antimicrobial spectrum, agar dilution MIC
[21] = tested on: Bact. fragilis SFM2906A; assay: antimicrobial spectrum, agar dilution MIC
[22] = tested on: Bact. fragilis SFM2929-1; assay: antimicrobial spectrum, agar dilution MIC
[23] = tested on: Bact. thetaiotamicron 106; assay: antimicrobial spectrum, agar dilution MIC
[24] = tested on: Bact. SP SFM2975-2; assay: antimicrobial spectrum, agar dilution MIC
[25] = tested on: Fusobacterium SP GS-10; assay: antimicrobial spectrum, agar dilution MIC
[26] = tested on: Cl. difficile ATCC 9689; assay: antimicrobial spectrum, agar dilution MIC
[27] = tested on: Propionibacterium acnes 132; assay: antimicrobial spectrum, agar dilution MIC
[28] = tested on: Peptostrep. micros ATCC 33270; assay: antimicrobial spectrum, agar dilution MIC
[29] = tested on: Peptostrep. anaerobius ATCC 27337; assay: antimicrobial spectrum, agar dilution MIC
[30] = tested on: Veillonella parvula ATCC 10790; assay: antimicrobial spectrum, agar dilution MIC
[31] = tested on: Strep. faecium ATCC 8043; assay: antimicrobial spectrum, agar dilution MIC; type: cell-based; details: BHI agar, 35°-37° C., 20-24 hours
[32] = tested on: Klebsiella pneumoniae 8045; assay: antimicrobial spectrum, agar dilution MIC; details: BHI agar, 35°-37° C., 20-24 hours
[33] = tested on: Pseudomonas aeruginosa K799/WT; assay: antimicrobial spectrum, agar dilution MIC; details: BHI agar, 35°-37° C., 20-24 hours

Molecule `CC[C@H]1OC(=O)[C@H](C)[C@@H](O[C@H]2C[C@@](C)(OC)[C@@H](O)[C@H](C)O2)[C@H](C)[C@@H](O[C@@H]2O[C@H](C)C[C@H](N(C)C)[C@H]2O)[C@](C)(O)C[C@@H](C)C(=O)[C@H](C)[C@@H](O)[C@]1(C)O` [Erythromycin A, reference compound] has an MIC ([1]; Streptococcus equinus, read-out: MIC) of 0.01 µg/mL (≈ 0.0136 µM), an MIC ([2]; Staphylococcus aureus, CMX739A, read-out: MIC) of 0.06 µg/mL (≈ 0.0818 µM) and an MIC ([3]; Staphylococcus aureus, CMX705, BHI agar, read-out: MIC) of 0.06 µg/mL (≈ 0.0818 µM). It also gave an MIC ([4]; Staphylococcus aureus, read-out: MIC) of 0.12 µg/mL (≈ 0.164 µM), an MIC ([5]; Streptococcus pyogenes, M79061140, BHI agar, read-out: MIC) of 0.002 µg/mL (≈ 0.00273 µM) and an MIC ([6]; Clostridium perfringens, 104) of 1.6 µg/mL (≈ 2.18 µM). For the same molecule, the MIC ([7]; Clostridium perfringens, SFBC2026) was 1.6 µg/mL (≈ 2.18 µM), the MIC ([8]; Clostridium perfringens, 788) was 1.6 µg/mL (≈ 2.18 µM) and the ED50 ([9]; oral) was 113 mg/kg. It also gave an ED50 ([9]; sc, subcutaneous) of 50 mg/kg, an ED50 ([10]; oral) of 50 mg/kg and an ED50 ([10]; sc, subcutaneous) of 3.5 mg/kg. The serum half-life [11] was 2 to 3 h, the MIC [12] was 1.6 µg/mL (≈ 2.18 µM) and the MIC ([13]; Escherichia coli, DC2) was 50 µg/mL (≈ 68.1 µM). The MIC ([14]; Escherichia coli, H560) was 12.5 µg/mL (≈ 17 µM), the MIC ([15]; Klebsiella aerogenes, ATCC10348) was 100 µg/mL (≈ 136 µM) and the MIC ([16]; Pseudomonas aeruginosa, K799/61) was 3.1 µg/mL (≈ 4.22 µM). It also gave an MIC ([17]; Staphylococcus aureus, A5278) of 128 µg/mL (≈ 174 µM), an MIC ([18]; Enterococcus, A5168) of 128 µg/mL (≈ 174 µM) and an MIC ([19]; Enterococcus, GYR1167) of 2 µg/mL (≈ 2.73 µM). For the same molecule, the MIC ([20]; Enterococcus faecalis, CMX663F) was 16 µg/mL (≈ 21.8 µM), the MIC ([21]; Bacteroides fragilis, SFM2906A) was 3.1 µg/mL (≈ 4.22 µM) and the MIC ([22]; Bacteroides fragilis, SFM29291) was 3.1 µg/mL (≈ 4.22 µM). It also gave an MIC [23] of 3.1 µg/mL (≈ 4.22 µM), an MIC [24] of 1.6 µg/mL (≈ 2.18 µM) and an MIC ([25]; Fusobacterium, SPGS10) of 50 µg/mL (≈ 68.1 µM). The MIC ([26]; Clostridioides difficile, ATCC9689) was 0.4 µg/mL (≈ 0.545 µM), the MIC ([27]; Cutibacterium acnes, 132) was 0.05 µg/mL (≈ 0.0681 µM) and the MIC [28] was 0.1 µg/mL (≈ 0.136 µM). It also gave an MIC [29] of 0.05 µg/mL (≈ 0.0681 µM) and an MIC ([30]; Veillonella parvula, ATCC10790) of 12.5 µg/mL (≈ 17 µM).
With `CCC1OC(=O)C(C)C(OC2CC(C)(OC)CC(C)O2)C(C)C(OC2OC(C)CC(N(C)C)C2O)C(C)(O)CC(C)C(=O)C(C)C2OC(=O)OC12C` (centres unmarked) [4"-deoxyerythromycin A 11,12-carbonate] the MIC [31] was “.05 µg/mL”, the MIC [1] was “.005 µg/mL” and the MIC [2] was “.03 µg/mL”. The MIC ([3]; BHI agar) was “.03 µg/mL”, the MIC [4] was “.06 µg/mL” and the MIC ([5]; BHI agar) was “.001 µg/mL”. For the same molecule, the MIC ([6]; Cl. perfringens 104, BHI agar, 35°-37° C., 20-24 hours) was “.4 µg/mL”, the MIC ([7]; Cl. perfringens SFBC 2026, BHI agar, 35°-37° C., 20-24 hours) was “.4 µg/mL” and the MIC ([8]; Cl. perfringens 788, BHI agar, 35°-37° C., 20-24 hours) was “.4 µg/mL”. For the same molecule, the ED-50 ([9]; oral) was 200.0 mg/kg, the ED-50 ([9]; subcutaneous) was 44.1 mg/kg and the ED-50 ([10]; oral) was 8.9 mg/kg. For the same molecule, the ED-50 ([10]; subcutaneous) was 4.0 mg/kg, the MIC ([13]; E. coli DC-2, BHI agar, 35°-37° C., 20-24 hours) was 25 µg/mL (≈ 33.6 µM) and the MIC ([14]; E. coli H560, BHI agar, 35°-37° C., 20-24 hours) was 6.2 µg/mL (≈ 8.33 µM). The MIC ([15]; Ent. aerogenes ATCC 10348, BHI agar, 35°-37° C., 20-24 hours) was 50 µg/mL (≈ 67.2 µM), the MIC [32] was 25 µg/mL (≈ 33.6 µM) and the MIC [33] was 100 µg/mL (≈ 134 µM). The MIC ([16]; Pseudomonas aeruginosa K799/61, BHI agar, 35°-37° C., 20-24 hours) was 1.56 µg/mL (≈ 2.1 µM), the MIC ([17]; Staph. aureus A-5278, BHI agar, 35°-37° C., 20-24 hours) was 128 µg/mL (≈ 172 µM) and the MIC ([18]; Enterococcus A-5168, BHI agar, 35°-37° C., 20-24 hours) was 128 µg/mL (≈ 172 µM). The MIC ([19]; Enterococcus GYR 1167, BHI agar, 35°-37° C., 20-24 hours) was “.5 µg/mL”, the MIC ([20]; Strep. faecalis CMX 663F, BHI agar, 35°-37° C., 20-24 hours) was 2 µg/mL (≈ 2.69 µM) and the MIC ([21]; Bact. fragilis SFM2906A, BHI agar, 35°-37° C., 20-24 hours) was “.8 µg/mL”. For the same molecule, the MIC ([22]; Bact. fragilis SFM2929-1, BHI agar, 35°-37° C., 20-24 hours) was 1.6 µg/mL (≈ 2.15 µM), the MIC ([23]; Bact. thetaiotamicron 106, BHI agar, 35°-37° C., 20-24 hours) was 3.1 µg/mL (≈ 4.17 µM) and the MIC ([24]; Bact. SP SFM2975-2, BHI agar, 35°-37° C., 20-24 hours) was “.8 µg/mL”. The MIC ([25]; Fusobacterium SP GS-10, BHI agar, 35°-37° C., 20-24 hours) was 25 µg/mL (≈ 33.6 µM), the MIC ([26]; Cl. difficile ATCC 9689, BHI agar, 35°-37° C., 20-24 hours) was “.4 µg/mL” and the MIC ([27]; Propionibacterium acnes 132, BHI agar, 35°-37° C., 20-24 hours) was “.05 µg/mL”. For the same molecule, the MIC ([28]; Peptostrep. micros ATCC 33270, BHI agar, 35°-37° C., 20-24 hours) was “.05 µg/mL”, the MIC ([29]; Peptostrep. anaerobius ATCC 27337, BHI agar, 35°-37° C., 20-24 hours) was “.05 µg/mL” and the MIC ([30]; Veillonella parvula ATCC 10790, BHI agar, 35°-37° C., 20-24 hours) was 3.1 µg/mL (≈ 4.17 µM).
